Some test systems named below: A549; COLO 205; HCT-15; HT-29; M14; MCF7; MDA-MB-231; NCI-H460; OVCAR-4; PC-3; RPMI-8226; SF-268; SK-MEL-2; SK-MEL-5; SK-OV-3; SN12C; SR; T47D; TK-10; UACC-257.
Experiment in all cases: NCI-60 cell line screen, 48 h

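48-hour exposure; five concentrations; linearly interpolated endpoints. Here, GI50 denotes the concentration required for 50% inhibition of growth.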 Active and inactive are the calls of the source. Rule as the data show it: active = GI50 up to about 1.1 µM and inactive = higher.

Regarding `CCOC(=O)C(NC(=O)c1cccc(Cl)c1)(N1CCN(c2cc3c(cc2F)c(=O)c(C(=O)O)cn3CC)CC1)C(F)(F)F` (stereo not given), the GI50 was 18.7 µM (inactive) in the assay on A549; 18.1 µM (inactive) with COLO 205; 17.6 µM with HCT-15; 17.6 µM (inactive) in the assay with HT-29; 16.8 µM (inactive) with M14; 13.8 µM (inactive) with MCF7. For the same compound, the GI50 in the assay on MDA-MB-231 was 15.8 µM (inactive); with NCI-H460, 22.3 µM (inactive); in the assay on OVCAR-4 it was 18.6 µM (inactive); in the assay on PC-3, 13.4 µM (inactive); in the assay on RPMI-8226, 10.9 µM (inactive); in the assay on SF-268, 14.1 µM (inactive). Besides, the GI50 with SK-MEL-2 was 13.5 µM (inactive); in the assay on SK-MEL-5, 14.2 µM (inactive); in the assay with SK-OV-3, 23.9 µM (inactive); with SN12C it was 24.4 µM (inactive); in the assay with SR, 17.1 µM (inactive); with T47D, 19.4 µM (inactive). Moreover, the results for the GI50 in the assay with TK-10 and in the assay on UACC-257 were 21.3 µM (inactive) and 27.4 µM (inactive), respectively.
With `O=[N+]([O-])/C(C(Cl)=C(Cl)Cl)=C(\N1CCCCC1)n1nnc2ccccc21`, the GI50 in the assay with A549 was 22.6 µM (inactive); with COLO 205 it was 17.8 µM (inactive); in the assay on HCT-15, 17.8 µM; in the assay with HT-29, 19.5 µM (inactive); in the assay with M14, 17.3 µM (inactive); in the assay on MCF7, 25.4 µM (inactive). The GI50 in the assay with MDA-MB-231 is 17.3 µM (inactive); with NCI-H460, 22.4 µM (inactive); in the assay on OVCAR-4 it was 47.1 µM (inactive); in the assay with PC-3 it was 17.6 µM (inactive); with RPMI-8226, 17.2 µM (inactive); in the assay with SF-268, 20.8 µM (inactive). Besides, the GI50 in the assay with SK-MEL-2 was 17.1 µM (inactive); in the assay on SK-MEL-5 it was 17.5 µM (inactive); in the assay on SK-OV-3 it was 24.9 µM (inactive); in the assay with SN12C, 18.3 µM (inactive); in the assay with SR, 16.4 µM (inactive); in the assay with T47D, 33.3 µM (inactive). The GI50 with TK-10 is 18.2 µM (inactive); in the assay on UACC-257 it was 17.9 µM (inactive).
On to `CC(C)(C)c1cc(C2COC(=O)COCC(=O)OCCOCCOCCO2)cc(C(C)(C)C)c1O` (stereo not given), for which the GI50 was > 31.6 µM (inactive) in the assay on A549; > 100 µM (inactive) in the assay on COLO 205; > 100 µM in the assay on HCT-15; 98.9 µM (inactive) in the assay with HT-29; 19.4 µM (inactive) in the assay on M14; > 100 µM (inactive) in the assay on MCF7. The GI50 was 44.6 µM (inactive) in the assay with MDA-MB-231; 30.9 µM (inactive) in the assay with NCI-H460; > 100 µM (inactive) in the assay on OVCAR-4; 40.2 µM (inactive) in the assay with PC-3; > 100 µM (inactive) in the assay with RPMI-8226; 18.2 µM (inactive) with SF-268. Moreover, the GI50 was 32.1 µM (inactive) with SK-MEL-2; > 100 µM (inactive) with SK-MEL-5; 24.9 µM (inactive) with SK-OV-3; 14.4 µM (inactive) in the assay with SN12C; 58.1 µM (inactive) with SR; > 100 µM (inactive) with T47D. The GI50 in the assay on TK-10 is 20.4 µM (inactive); in the assay with UACC-257, > 61.7 µM (inactive).
On to `COC(=O)c1c(CC(Cc2ccc3c(c2)CCCC3)C(=O)OC)ccc2c1CCCC2` (stereo not given), for which the GI50 is 37 µM (inactive) in the assay on A549; 19.9 µM (inactive) in the assay with COLO 205; 46.2 µM with HCT-15; 24.4 µM (inactive) in the assay with HT-29; > 100 µM (inactive) in the assay with M14; 20.6 µM (inactive) in the assay with MCF7. Besides, the GI50 in the assay on MDA-MB-231 is > 100 µM (inactive); with NCI-H460, 88.5 µM (inactive); with OVCAR-4, 5.68 µM (inactive); in the assay on PC-3, 38.7 µM (inactive); with RPMI-8226 it was 24.9 µM (inactive); in the assay with SF-268 it was 55.3 µM (inactive). Further, the GI50 is > 100 µM (inactive) in the assay on SK-MEL-2; 29.4 µM (inactive) in the assay with SK-MEL-5; 39.2 µM (inactive) with SK-OV-3; > 100 µM (inactive) in the assay with SN12C; 34.7 µM (inactive) in the assay with SR; 35.8 µM (inactive) with T47D. Also, the GI50 in the assay on TK-10 was > 100 µM (inactive); with UACC-257 it was 24 µM (inactive).
On to `Cc1nc([N+](=O)[O-])cn1-c1nc2ccccn2c1[N+](=O)[O-]`, for which the GI50 in the assay on A549 is > 100 µM (inactive); in the assay with COLO 205 it was 90.4 µM (inactive); in the assay with HCT-15, > 100 µM; with HT-29 it was 64.9 µM (inactive); in the assay with M14 it was > 100 µM (inactive); in the assay on MCF7, 95.3 µM (inactive). The GI50 with MDA-MB-231 is 56.4 µM (inactive); in the assay with NCI-H460, 45.1 µM (inactive); with OVCAR-4, > 100 µM (inactive); with PC-3, 38.4 µM (inactive); in the assay on RPMI-8226, 64.1 µM (inactive); with SF-268, > 100 µM (inactive). Further, the GI50 in the assay on SK-MEL-2 was 43.4 µM (inactive); in the assay on SK-MEL-5, 81.8 µM (inactive); in the assay on SK-OV-3 it was 47.2 µM (inactive); with SN12C, 30 µM (inactive); in the assay with SR, 42 µM (inactive); in the assay on T47D, 43.7 µM (inactive). The GI50 is 67.5 µM (inactive) in the assay on TK-10 and 99.3 µM (inactive) in the assay on UACC-257.
Consider `c1ccc(/C(=N/Nc2nc3ccccc3s2)C2CCCCC2)nc1`, for which the GI50 in the assay with A549 is 16.9 µM (inactive); with COLO 205, 1.57 µM (inactive); with HCT-15, 2.77 µM; with HT-29, 0.569 µM (active); in the assay on M14, 10.3 µM (inactive); with MCF7, 1.23 µM (inactive). Further, the GI50 in the assay on MDA-MB-231 is 11.3 µM (inactive); with NCI-H460 it was 7.83 µM (inactive); with OVCAR-4, 9.79 µM (inactive); in the assay on PC-3, 6.11 µM (inactive); in the assay on RPMI-8226, 3.94 µM (inactive); with SF-268, 10.6 µM (inactive). In addition, the GI50 in the assay on SK-MEL-2 was 15.7 µM (inactive); with SK-MEL-5 it was 6.24 µM (inactive); in the assay on SK-OV-3, 4.67 µM (inactive); in the assay with SN12C it was 9.44 µM (inactive); with SR it was 3.88 µM (inactive); in the assay on T47D it was 0.299 µM (active). Also, the GI50 in the assay on TK-10 was 2.47 µM (inactive); with UACC-257 it was 4.32 µM (inactive).
In the case of `OC1(c2ccc(Cl)cc2)c2ccccc2C2=Nc3ccccc3CN21` (stereo not given), the GI50 in the assay with A549 was 12.7 µM (inactive); in the assay with COLO 205, > 69.2 µM (inactive); in the assay on HCT-15 it was 30.8 µM; in the assay with HT-29, 14.8 µM (inactive); with M14 it was > 100 µM (inactive); in the assay with MCF7, 21.9 µM (inactive). Also, the GI50 was 34.6 µM (inactive) in the assay on MDA-MB-231; 37.6 µM (inactive) in the assay on NCI-H460; 20.6 µM (inactive) in the assay with OVCAR-4; 45.8 µM (inactive) with PC-3; 33.4 µM (inactive) in the assay with RPMI-8226; 33.2 µM (inactive) in the assay with SF-268. For the same compound, the GI50 with SK-MEL-2 is > 51.2 µM (inactive); in the assay on SK-MEL-5 it was > 46.1 µM (inactive); in the assay with SK-OV-3, 38.5 µM (inactive); in the assay on SN12C, 22.2 µM (inactive); in the assay with SR it was 5.93 µM (inactive); with T47D it was 45.5 µM (inactive). In addition, the GI50 was > 95.5 µM (inactive) with TK-10 and > 100 µM (inactive) in the assay with UACC-257.
`COc1cccc2c1C(=O)c1c(O)c3c(c(O)c1C2=O)C[C@@](O)(C(C)=O)C[C@@H]3OC1CC(N(C)C)C(O)C(C)O1` (stereo not given in full): the GI50 is 0.00617 µM (active) in the assay with A549; 0.00428 µM (active) in the assay with COLO 205; 0.00389 µM in the assay with HCT-15; 0.00356 µM (active) in the assay with HT-29; 0.00439 µM (active) in the assay on M14; 0.01 µM (active) with MCF7. The GI50 is 0.00132 µM (active) in the assay with MDA-MB-231; 0.00383 µM (active) in the assay on NCI-H460; 0.0306 µM (active) in the assay with OVCAR-4; 0.000206 µM (active) in the assay with PC-3; 0.0113 µM (active) with RPMI-8226; 0.00436 µM (active) in the assay on SF-268. Further, the GI50 in the assay on SK-MEL-2 was 0.0798 µM (active); in the assay with SK-MEL-5, 0.00236 µM (active); in the assay on SK-OV-3, 0.00593 µM (active); in the assay on SN12C, 0.00357 µM (active); in the assay with SR it was 0.00135 µM (active); with T47D, 0.000196 µM (active). The GI50 with TK-10 is 0.00514 µM (active); in the assay with UACC-257, 0.00555 µM (active).
Consider `O=C(/C=C(\N=P(c1ccccc1)(c1ccccc1)c1ccccc1)C(F)(F)C(F)(F)C(F)(F)C(F)(F)C(F)(F)C(F)(F)C(F)(F)F)c1ccccc1`, for which the GI50 in the assay with A549 is > 100 µM (inactive); in the assay on COLO 205, > 100 µM (inactive); with HCT-15, > 100 µM; with HT-29, > 100 µM (inactive); with M14, > 100 µM (inactive); in the assay on MCF7 it was > 100 µM (inactive). Further, the GI50 with MDA-MB-231 is > 10 µM (inactive); in the assay on NCI-H460 it was > 100 µM (inactive); in the assay on OVCAR-4 it was > 100 µM (inactive); with PC-3, > 100 µM (inactive); with RPMI-8226, > 100 µM (inactive); with SF-268, > 100 µM (inactive). Also, the GI50 in the assay on SK-MEL-2, in the assay on SK-MEL-5, with SK-OV-3, in the assay on SN12C, in the assay on SR and in the assay with T47D was > 100 µM (inactive) throughout. The GI50 in the assay on TK-10 and in the assay on UACC-257 was > 100 µM (inactive) each time.
On to `O=Nc1c(-c2c(O)[nH]c3ccccc23)[nH]c2ccccc12` [INDIRUBIN-3-MONOXIME], for which the GI50 was 3.8 µM (inactive) in the assay on A549; 12.5 µM (inactive) in the assay on COLO 205; 2.48 µM with HCT-15; 7.14 µM (inactive) with HT-29; 5.61 µM (inactive) with M14; 3.13 µM (inactive) with MCF7. Moreover, the GI50 is 3.38 µM (inactive) in the assay on MDA-MB-231; 3.53 µM (inactive) in the assay with NCI-H460; 5.08 µM (inactive) with OVCAR-4; 3.72 µM (inactive) in the assay on PC-3; 3.95 µM (inactive) in the assay on RPMI-8226; 5.5 µM (inactive) in the assay on SF-268. Also, the GI50 with SK-MEL-2 is 1.91 µM (inactive); in the assay with SK-MEL-5, 3.99 µM (inactive); in the assay with SK-OV-3 it was 1.56 µM (inactive); with SN12C it was 2.98 µM (inactive); with SR it was 4.85 µM (inactive); in the assay on T47D it was 4.3 µM (inactive). The GI50 was 5.79 µM (inactive) in the assay on TK-10 and 18.3 µM (inactive) in the assay with UACC-257.

For the origin of these results see ChEMBL document CHEMBL1201862, “PubChem BioAssay data set” (2004).
